Where a name gives a salt, the structure may show the parent alone.
Target: human KOR receptor (Homo sapiens, UniProt P41145)
Experiment: IP-One HTRF assay, potency of KOR agonists, dose-response in transiently transfected COS-7 cells
Type: cell-based

Chain of human KOR receptor (P41145 whole entry): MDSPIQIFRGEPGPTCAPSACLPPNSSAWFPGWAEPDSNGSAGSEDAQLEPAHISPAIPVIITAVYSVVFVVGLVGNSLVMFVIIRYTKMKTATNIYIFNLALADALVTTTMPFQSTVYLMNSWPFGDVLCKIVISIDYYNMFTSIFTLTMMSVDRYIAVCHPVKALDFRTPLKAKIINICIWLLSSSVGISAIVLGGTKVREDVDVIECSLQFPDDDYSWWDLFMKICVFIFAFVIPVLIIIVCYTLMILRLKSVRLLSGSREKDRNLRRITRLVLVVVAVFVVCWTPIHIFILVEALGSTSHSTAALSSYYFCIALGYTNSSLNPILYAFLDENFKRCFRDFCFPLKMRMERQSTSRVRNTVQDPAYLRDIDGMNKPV

SMILES | EC50
CN(C(=O)Cc1ccc2c(c1)NC(=O)CS2(=O)=O)[C@H](CN1CCC(O)C1)c1ccccc1 (stereo in doubt) [Example 120, 2-(1,1-dioxido-3-oxo-3,4-dihydro-2H-benzo[b][1,4]thiazin-6-yl)-N-((S)-2-((S)-3-hydroxypyrrolidin-1-yl)-1-phenylethyl)-N-methylacetamide] | ≤ 50 nM
CN(C(=O)Cc1ccc2c(c1)NC(=O)C2)[C@H](CN1CC[C@H](F)C1)c1cccc(C(=O)O)c1 [Example 28, 3-((S)-2-((S)-3-fluoropyrrolidin-1-yl)-1-(N-methyl-2-(2-oxoindolin-6-yl)acetamido)ethyl) benzoic acid] | 101 to 1000 nM
CN(C(=O)Cc1ccc2c(c1)NC(=O)C2)[C@H](CN1CC[C@H](O)C1)c1cccc(-c2noc(C(F)(F)F)n2)c1 [Example 179, N-((S)-2-((S)-3-hydroxypyrrolidin-1-yl)-1-(3-(5-(trifluoromethyl)-1,2,4-oxadiazol-3-yl)phenyl)ethyl)-N-methyl-2-(2-oxoindolin-6-yl)acetamide] | ≤ 50 nM
O=C(Cc1ccc2c(c1)NC(=O)C2(F)F)N[C@H](CN1CC[C@H](O)C1)c1ccccc1 [Example 13, 2-(3,3-difluoro-2-oxoindolin-6-yl)-N-((S)-2-((S)-3-hydroxypyrrolidin-1-yl)-1-phenylethyl)acetamide] | ≥ 1000 nM
O=C(O)COc1cccc(C(CN2CC[C@H](O)C2)NC(=O)Cc2ccc3c(c2)NC(=O)C3)c1 (mixture of isomers) [Example 100, (S)-2-(3-(2-(3-hydroxypyrrolidin-1-yl)-1-(2-(2-oxoindolin-6-yl)acetamido)ethyl)phenoxy)acetic acid hydrochloride] | ≤ 50 nM
CN(C(=O)Cc1ccc2c(c1)NS(=O)(=O)C2)[C@H](CN1CC[C@H](O)C1)c1cccc(-c2noc(C(F)(F)F)n2)c1 [Example 187, 2-(2,2-dioxido-1,3-dihydrobenzo [c]isothiazol-6-yl)-N-((S)-2-((S)-3-hydroxypyrrolidin-1-yl)-1-(3-(5-(trifluoromethyl)-1,2,4-oxadiazol-3-yl)phenyl)ethyl)-N-methylacetamide 2,2,2-trifluoroacetate] | ≤ 50 nM
Cc1nc(-c2cccc([C@@H](CN3CC[C@H](O)C3)N(C)C(=O)Cc3ccc4sc(=O)[nH]c4c3)c2)no1 [Example 183, N-((S)-2-((S)-3-hydroxypyrrolidin-1-yl)-1-(3-(5-methyl-1,2,4-oxadiazol-3-yl)phenyl)ethyl)-N-methyl-2-(2-oxo-2,3-dihydrobenzo[d]thiazol-5-yl)acetamide] | ≤ 50 nM
CN(C(=O)Cc1ccc2c(c1)NC(=O)CS2(=O)=O)[C@H](CN1CC[C@H](O)C1)c1cccc(OCC(=O)NS(C)(=O)=O)c1 [Example 174, 2-(1,1-dioxido-3-oxo-3,4-dihydro-2H-benzo[b][1,4]thiazin-6-yl)-N-((S)-2-((S)-3-hydroxypyrrolidin-1-yl)-1-(3-(2-(methylsulfonamido)-2-oxoethoxy)phenyl)ethyl)-N-methylacetamide] | ≤ 50 nM
O=C1Cc2cc(CC(=O)N[C@H](CN3CC[C@H](O)C3)c3ccccc3)ccc2N1 [Example 157, N-((S)-2-((S)-3-hydroxypyrrolidin-1-yl)-1-phenylethyl)-2-(2-oxoindolin-5yl)acetamide] | ≤ 50 nM
CN(C(=O)Cc1ccc2c(c1)NC(=O)CS2(=O)=O)[C@H](CN1CC[C@H](O)C1)c1cccc(OCC(N)=O)c1 [Example 168, N-((S)-1-(3-(2-amino-2-oxoethoxy)phenyl)-2-((S)-3-hydroxypyrrolidin-1-yl)ethyl)-2-(1,1-dioxido-3-oxo-3,4-dihydro-2H-benzo[b][1,4]thiazin-6-yl)-N-methylacetamide] | ≤ 50 nM
O=C1CS(=O)(=O)c2ccc(CC(=O)N(CC(F)(F)F)[C@H](CN3CC[C@H](O)C3)c3cccc(OC(F)(F)F)c3)cc2N1 [Example 16, 2-(1,1-dioxido-3-oxo-3,4-dihydro-2H-benzo[b][1,4]thiazin-6-yl)-N-((S)-2-((S)-3-hydroxypyrrolidin-1-yl)-1-(3-(trifluoromethoxy)phenyl)ethyl)-N-(2,2,2-trifluoroethyl)acetamide 2,2,2-trifluoroacetate] | ≤ 50 nM
CN(C(=O)Cc1ccc2c(c1)NC(=O)C2)[C@H](CN1CC[C@H](O)C1)c1cccc(-c2nccn2CC2CC2)c1 [Example 226, N-((S)-1-(3-(1-(cyclopropylmethyl)-1H-imidazol-2-yl)phenyl)-2-((S)-3-hydroxypyrrolidin-1-yl)ethyl)-N-methyl-2-(2-oxoindolin-6-yl)acetamide] | ≤ 50 nM
CN(C(=O)Cc1ccc2c(c1)NC(=O)CS2(=O)=O)C(CN1CC[C@H](O)C1)C1CCOCC1 (stereo partly drawn) [Example 17, 2-(1,1-dioxido-3-oxo-3,4-dihydro-2H-benzo[b][1,4]thiazin-6-yl)-N-(2-((S)-3-hydroxypyrrolidin-1-yl)-1-(tetrahydro-2H-pyran-4-yl)ethyl)-N-methylacetamide-2,2,2-trifluoroacetate] | 101 to 1000 nM
CN(C(=O)Cc1ccc2oc(=O)[nH]c2c1)C(CN1CC[C@H](O)C1)c1cccc(OCC#N)c1 (mixture of isomers) [Example 76, N-(1-(3-(cyanomethoxy)phenyl)-2-(3-hydroxypyrrolidin-1-yl)ethyl)-N-methyl-2-(2-oxo-2,3-dihydrobenzo[d]oxazol-5-yl)acetamide] | ≤ 50 nM
CN(C(=O)Cc1ccc2ncc(=O)[nH]c2c1)[C@H](CN1CC[C@H](O)C1)c1cccc(-c2noc(C(F)(F)F)n2)c1 [Example 34, N-((S)-2-((S)-3-hydroxypyrrolidin-1-yl)-1-(3-(5-(trifluoromethyl)-1,2,4-oxadiazol-3-yl)phenyl)ethyl)-N-methyl-2-(3-oxo-3,4-dihydroquinoxalin-6-yl)acetamide] | ≤ 50 nM
CCC#Cc1cccc([C@@H](CN2CC[C@H](O)C2)N(C)C(=O)Cc2ccc3c(c2)NC(=O)C3)c1 [Example 204, N-((S)-1-(3-(but-1-yn-1-yl)phenyl)-2-((S)-3-hydroxypyrrolidin-1-yl)ethyl)-N-methyl-2-(2-oxoindolin-6-yl)acetamide] | ≤ 50 nM
CN(C(=O)Cc1ccc2c(c1)N(C)S(=O)(=O)C2)[C@H](CN1CC[C@H](O)C1)c1cccc(OCC(=O)O)c1 [Example 80, 2-(3-((S)-2-((S)-3-hydroxypyrrolidin-1-yl)-1-(N-methyl-2-(1-methyl-2,2-dioxido-1,3-dihydrobenzo[c]isothiazol-6-yl)acetamido)ethyl)phenoxy)acetic acid] | ≤ 50 nM
CN(C(=O)Cc1ccc2c(c1)NC(=O)CS2)[C@H](CN1CC[C@H](O)C1)c1cccc(C(=O)O)c1 [Example 154, 3-((S)-2-((S)-3-hydroxypyrrolidin-1-yl)-1-(N-methyl-2-(3-oxo-3,4-dihydro-2H-benzo[b][1,4]thiazin-6-yl)acetamido)ethyl)benzoic acid] | ≤ 50 nM
Cc1nnc(-c2cccc([C@@H](CN3CC[C@H](O)C3)N(C)C(=O)Cc3ccc4c(c3)NC(=O)C4)c2)s1 [Example 221, N-((S)-2-((S)-3-hydroxypyrrolidin-1-yl)-1-(3-(5-methyl-1,3,4-thiadiazol-2-yl)phenyl)ethyl)-N-methyl-2-(2-oxoindolin-6-yl)acetamide] | ≤ 50 nM
O=C1CSc2ccc(CC(=O)N[C@H](CN3CCCC3)c3ccccc3)cc2N1 [Example 127, (S)-2-(3-oxo-3,4-dihydro-2H-benzo [b][1,4]thiazin-6-yl)-N-(1-phenyl-2-(pyrrolidin-1-yl)ethyl)acetamide] | ≤ 50 nM
CN(C(=O)Cc1ccc2c(c1)NC(=O)C2)[C@H](CN1CC[C@H](F)C1)c1cccc(OCC(N)=O)c1 [Example 30, N-((S)-1-(3-(2-amino-2-oxoethoxy)phenyl)-2-((S)-3-fluoropyrrolidin-1-yl)ethyl)-N-methyl-2-(2-oxoindolin-6-yl)acetamide] | ≥ 1000 nM
CN(C(=O)Cc1ccc2c(c1)CC(=O)N2)C(CN1CCC(O)C1)c1ccccc1 (stereo in doubt) [Example 161, N-((S)-2-((S)-3-hydroxypyrrolidin-1-yl)-1-phenylethyl)-N-methyl-2-(2-oxoindolin-5-yl)acetamide] | ≤ 50 nM
O=C(O)Cn1c(=O)oc2ccc(CC(=O)N[C@H](CN3CCCC3)c3ccccc3)cc21 [Example 83, (S)-2-(2-oxo-5-(2-oxo-2-(1-phenyl-2-(pyrrolidin-1-yl)ethylamino)ethyl)benzo[d]oxazol-3(2H)-yl)acetic acid hydrochloride] | ≤ 50 nM
CN(C(=O)Cc1ccc2oc(=O)[nH]c2c1)[C@H](CN1CC[C@H](O)C1)c1cccc(C(N)=O)c1 [Example 160, 3-((S)-2-((S)-3-hydroxypyrrolidin-1-yl)-1-(N-methyl-2-(2-oxo-2,3-dihydrobenzo[d]oxazol-5-yl)acetamido)ethyl)benzamide] | ≤ 50 nM
CC(C)N(C(=O)Cc1ccc2c(c1)NC(=O)CS2(=O)=O)[C@H](CN1CC[C@H](O)C1)c1cccc(OC(F)(F)F)c1 [Example 138, 2-(1,1-dioxido-3-oxo-3,4-dihydro-2H-benzo[b][1,4]thiazin-6-yl)-N-((S)-2-((S)-3-hydroxypyrrolidin-1-yl)-1-(3-(trifluoromethoxy)phenyl)ethyl)-N-isopropylacetamide] | 51 to 100 nM
CN(C(=O)Cc1ccc2c(c1)NC(=O)CS2)[C@H](CN1CC[C@H](O)C1)c1cccc(F)c1 [Example 133, N-((S)-1-(3-fluorophenyl)-2-((S)-3-hydroxypyrrolidin-1-yl)ethyl)-N-methyl-2-(3-oxo-3,4-dihydro-2H-benzo[b][1,4]thiazin-6-yl)acetamide] | ≤ 50 nM
CN(C(=O)Cc1ccc2c(c1)NC(=O)C2)[C@H](CN1CC[C@H](O)C1)c1cccc(OCC(=O)O)c1 [Example 159, 2-(3-((S)-2-((S)-3-hydroxypyrrolidin-1-yl)-1-(N-methyl-2-(2-oxoindolin-6-yl)acetamido)ethyl)phenoxy)acetic acid] | ≤ 50 nM
CN(C(=O)Cc1ccc2c(c1)NC(=O)CO2)[C@H](CN1CC[C@H](O)C1)c1cccc(C(=O)O)c1 [Example 155, 3-((S)-2-((S)-3-hydroxypyrrolidin-1-yl)-1-(N-methyl-2-(3-oxo-3,4-dihydro-2H-benzo[b][1,4]oxazin-6-yl)acetamido)ethyl)benzoic acid] | ≤ 50 nM
